Test results as given in US9073868B2, “Benzazepine derivatives useful as vasopressin antagonists” (Otsuka Pharmaceutical Co., Ltd., priority 2007, dated 2015).

Key:
[1] = Test Example 1: oral absorption in rats, serum concentrations of tolvaptan after oral suspension; assay type: in vivo; conditions: male rats deprived of food about 18 hours, forced oral administration of suspension, 1 mg of tolvaptan per kg, Mean ± S.D. (n = 3 or 4)
Procedure: The compounds obtained in Examples 1, 50, and 52 were used as test compounds.
Each test compound, (Examples 1, 50, and 52) equivalent to 10 mg of tolvaptan, and hypromellose (125 mg) were suspended in 25 ml of water for injection in a porcelain mortar, to thereby obtain a suspension equivalent to 0.4 mg of tolvaptan per ml of suspension.
A spray-dried tolvaptan powder equivalent to 60 mg of tolvaptan, which was prepared in a similar manner to Example 3 of Japanese Unexamined Patent Publication No. 1999-21241, was suspended in 50 ml of water for injection in a porcelain mortar. This suspension was diluted three-fold with water for injection, preparing a suspension of spray-dried powder equivalent to 0.4 mg of tolvaptan per ml of suspension.
The following tests were conducted to examine the oral absorption features of each suspension. Male rats (body weight: about 180 g) that had been deprived of food for about 18 hours were used as test animals. The above suspensions were each administered by forced oral administration using a sonde for oral administration at a dose of 2.5 ml/kg of body weight, producing 1 mg of tolvaptan per kg of body weight. The blood samples were collected from the jugular vein under light diethyl ether anesthesia at the time of 0.5 hour, 1 hour, 2 hours, 4 hours, 6 hours, and 8 hours later after dosing. The serum concentrations of tolvaptan (ng/ml) were determined by using UPLC-MS/MS (Waters).
The average phaLmacokinetic parameters were calculated from the results.

[2] = Test Example 2: oral absorption in rats, serum concentrations of tolvaptan after oral solution or suspension; assay type: in vivo; conditions: rat, male rats fasted about 18 hours, forced oral administration of suspension or solution, 1 mg of tolvaptan per kg, Mean ± S.D. (n = 4)
Procedure: The compounds obtained in Examples 74 was used as test compounds.
The test compound, (Examples 1) equivalent to 10 mg of tolvaptan, and hydroxypropylcellulose (5 mg) was dissolved in 25 ml of water for injection in a porcelain mortar, to thereby obtain a solution equivalent to 0.4 mg of tolvaptan per ml.
A spray-dried tolvaptan powder equivalent to 10 mg of tolvaptan was suspended in 25 ml of water for injection in a porcelain mortar, to obtain a suspension of spray-dried powder equivalent to 0.4 mg of tolvaptan per ml of suspension.
The following tests were conducted to examine the oral absorption features of each suspension and solution. Male rats (body weight: about 160 g) that had been fasted for about 18 hours were used as test animals. The above suspension or solution were each administered by forced oral administration using a sonde for oral administration at a dose of 2.5 ml/kg of body weight, producing 1 mg of tolvaptan per kg of body weight. The blood samples were collected from the jugular vein under light diethyl ether anesthesia at the time of 0.5 hour, 1 hour, 2 hours, 3 hours, 4 hours, 6 hours, 8 hours and 10 hours later after dosing. The serum concentrations of tolvaptan (ng/ml) were determined by using UPLC-MS/MS (Waters).
The average pharmacokinetic parameters were calculated from the results.

Compound | AUC∞ [1] | Cmax [1] | MRT∞ [1] | Tmax [1] | AUC(0-inf) ([1]; rat) | MRT inf ([1]; rat) | Cmax ([1]; rat, read-out: Cmax) | Tmax ([1]; rat, read-out: Tmax) | AUC(0-inf) [2] | Cmax [2] | MRT inf [2] | Tmax [2]
Cc1ccccc1C(=O)Nc1ccc(C(=O)N2CCCC(OC(=O)CCC(=O)O)c3cc(Cl)ccc32)c(C)c1 (stereo not drawn) [Example 1, {7-Chloro-1-[2-methyl-4-(2-methyl-benzoylamino)-benzoyl]-2,3,4,5-tetrahydro-1H-benzo[b]azepin-5-yl} Succinate] | 96.1 ± 18.1 ng·h/mL | 16.2 ± 4.8 ng/mL | 4.45 ± 0.64 h | 2.00 ± 0.00 h |  |  |  |  |  |  |  | 
Cc1ccccc1C(=O)Nc1ccc(C(=O)N2CCCC(O)c3cc(Cl)ccc32)c(C)c1 (stereo not drawn) [Tolvaptan] |  |  |  |  | 80.9 ± 28.5 ng·h/mL | 2.95 ± 0.35 h | 26.4 ± 12.9 ng/mL | 1.5 ± 0.58 h | 92.4 ± 27 ng·h/mL | 26.9 ± 11.6 ng/mL | 2.96 ± 0.47 h | 1 h
